# Test results reported in patent US8637525B2, “Compounds for the reduction of beta-amyloid production” (Bristol-Myers Squibb Company, priority 2009, dated 2014).
# System: Aβ1-42 production
# Assay: Cellular assay for inhibition of Aβ1-42 production (H4 APP751 SWE clone 8.20)
# Assay type: cell-based
# Conditions: 19 h, H4 APP751 SWE clone 8.20 cells, 19 h incubation; class symbols; read-out: Activity Rating (Aβ42 cellular IC50)
# Outline: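 Inhibition values are IC50s fitted to Viewlux counts after a 19 h compound exposure at 37 °C. Aβ42 was captured by the neoepitope-specific antibody 565 (0.8 ng/well) paired with N-terminal 26D6 (75 ng/well), incubated overnight at 4 °C in pH 7.4 Tris-HCl buffer containing 0.2% BSA.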
row,IC50,Structure (SMILES)
1,1.5 to 9.9 nM,"CNc1nc(Nc2ccc(-n3cnc(Cl)c3)c(OC)c2)nc2c1CCC2c1ccc(F)cc1 (single isomer, unassigned) [Example 11B, N^2-(4-(4-Chloro-1H-imidazol-1-yl)-3-methoxyphenyl)-7-(4-fluorophenyl)-N^4-methyl-6,7-dihydro-5H-cyclopenta[d]pyrimidine-2,4-diamine]"
2,10 to 100 nM,"COc1cc(Nc2nc3c(c(N4CC(F)(F)C4)n2)CCC3c2ccc(F)cc2)ccc1-n1cnc(Cl)n1 (single isomer, unassigned) [Example 17B, N-(4-(3-chloro-1H-1,2,4-triazol-1-yl)-3-methoxyphenyl)-4-(3,3-difluoroazetidin-1-yl)-7-(4-fluorophenyl)-6,7-dihydro-5H-cyclopenta[d]pyrimidin-2-amine]"
3,10 to 100 nM,"COc1cc(Nc2nc3c(c(N4C[C@@H]5C[C@H]4CO5)n2)CCC3c2ccc(F)cc2)ccc1-n1cnc(Cl)c1 (single isomer, unassigned) [Example 18B]"
4,10 to 100 nM,"CNc1nc(Nc2ccc(-n3ncnc3C)c(F)c2)nc2c1CCC2c1ccc(F)cc1 (single isomer, unassigned) [Example 26A, N^2-(3-fluoro-4-(5-methyl-1H-1,2,4-triazol-1-yl)phenyl)-7-(4-fluorophenyl)-N^4-methyl-6,7-dihydro-5H-cyclopenta[d]pyrimidine-2,4-diamine]"
5,10 to 100 nM,"COc1cc(Nc2nc3c(c(N4CCC(O)(C(F)(F)F)C4)n2)CCC3c2ccc(F)cc2)ccc1-n1cnc(Cl)c1 (single isomer, unassigned) [Example 27, 1-(2-(4-(4-chloro-1H-imidazol-1-yl)-3-methoxyphenylamino)-7-(4-fluorophenyl)-6,7-dihydro-5H-cyclopenta[d]pyrimidin-4-yl)-3-(trifluoromethyl)pyrrolidin-3-ol]"

# Same assay, conditions: 19 h, H4 APP751 SWE clone 8.20 cells, 19 h incubation; read-out: Activity Rating (Aβ42 cellular IC50), numeric value
row,IC50,Structure (SMILES)
1,120 nM,"COc1cc(Nc2nc3c(c(N4CC(F)(F)C4)n2)CCC3c2ccc(F)cc2)ccc1-n1cnc(Cl)n1 (single isomer, unassigned) [Example 17A, N-(4-(3-chloro-1H-1,2,4-triazol-1-yl)-3-methoxyphenyl)-4-(3,3-difluoroazetidin-1-yl)-7-(4-fluorophenyl)-6,7-dihydro-5H-cyclopenta[d]pyrimidin-2-amine]"
2,8.8 nM,"COc1cc(Nc2nc3c(c(N4C[C@@H]5C[C@H]4CO5)n2)CCC3c2ccc(F)cc2)ccc1-n1cnc(Cl)c1 (single isomer, unassigned) [Example 18A]"
3,59 nM,"COc1cc(Nc2nc3c(c(N4CCCC4C)n2)CCC3c2ccc(F)cc2)ccc1-n1cnc(Cl)c1 (single isomer, unassigned) [Example 19B, N-(4-(4-chloro-1H-imidazol-1-yl)-3-methoxyphenyl)-7-(4-fluorophenyl)-4-(2-methylpyrrolidin-1-yl)-6,7-dihydro-5H-cyclopenta[d]pyrimidin-2-amine]"
4,200 nM,"CCC1CCCN1c1nc(Nc2ccc(-n3cnc(Cl)c3)c(OC)c2)nc2c1CCC2c1ccc(F)cc1 (single isomer, unassigned) [Example 24B, N-(4-(4-chloro-1H-imidazol-1-yl)-3-methoxyphenyl)-4-(2-ethylpyrrolidin-1-yl)-7-(4-fluorophenyl)-6,7-dihydro-5H-cyclopenta[d]pyrimidin-2-amine]"

# Same assay, conditions: H4 APP751 SWE clone 8.20 cells, 19 h incubation; class symbols; read-out: Activity Rating (Aβ42 cellular IC50)
row,Structure (SMILES),IC50
1,"Cc1ncnn1-c1ccc(Nc2nc3c(c(N4CC(F)(F)C4)n2)CCC3c2ccc(F)cc2)cc1F (single isomer, unassigned) [Example 16A, 4-(3,3-difluoroazetidin-1-yl)-N-(3-fluoro-4-(5-methyl-1H-1,2,4-triazol-1-yl)phenyl)-7-(4-fluorophenyl)-6,7-dihydro-5H-cyclopenta[d]pyrimidin-2-amine]",1.5 to 9.9 nM
2,"Cc1ncnn1-c1ccc(Nc2nc3c(c(N4CC(F)(F)C4)n2)CCC3c2ccc(F)cc2)cc1F (single isomer, unassigned) [Example 16B, 4-(3,3-difluoroazetidin-1-yl)-N-(3-fluoro-4-(5-methyl-1H-1,2,4-triazol-1-yl)phenyl)-7-(4-fluorophenyl)-6,7-dihydro-5H-cyclopenta[d]pyrimidin-2-amine]",100 to 1000 nM
3,"COc1cc(Nc2nc3c(c(N4CCCC4C)n2)CCC3c2ccc(F)cc2)ccc1-n1cnc(Cl)c1 (single isomer, unassigned) [Example 19, N-(4-(4-chloro-1H-imidazol-1-yl)-3-methoxyphenyl)-7-(4-fluorophenyl)-4-(2-methylpyrrolidin-1-yl)-6,7-dihydro-5H-cyclopenta[d]pyrimidin-2-amine]",10 to 100 nM
4,"COc1cc(Nc2nc3c(c(N4CCCC4C)n2)CCC3c2ccc(F)cc2)ccc1-n1cnc(Cl)c1 (single isomer, unassigned) [Example 19A, N-(4-(4-chloro-1H-imidazol-1-yl)-3-methoxyphenyl)-7-(4-fluorophenyl)-4-(2-methylpyrrolidin-1-yl)-6,7-dihydro-5H-cyclopenta[d]pyrimidin-2-amine]",10 to 100 nM
5,"COc1cc(Nc2nc3c(c(N4CCCC4C)n2)CCC3c2ccc(F)cc2)ccc1-n1cnc(Cl)c1 (single isomer, unassigned) [Example 20, N-(4-(4-chloro-1H-imidazol-1-yl)-3-methoxyphenyl)-7-(4-fluorophenyl)-4-(2-methylpyrrolidin-1-yl)-6,7-dihydro-5H-cyclopenta[d]pyrimidin-2-amine]",1.5 to 9.9 nM
6,"COc1cc(Nc2nc3c(c(N4CCCC4C)n2)CCC3c2ccc(F)cc2)ccc1-n1cnc(Cl)c1 (single isomer, unassigned) [Example 20A, N-(4-(4-chloro-1H-imidazol-1-yl)-3-methoxyphenyl)-7-(4-fluorophenyl)-4-(2-methylpyrrolidin-1-yl)-6,7-dihydro-5H-cyclopenta[d]pyrimidin-2-amine]",1.5 to 9.9 nM
7,"COc1cc(Nc2nc3c(c(N4CCCC4C)n2)CCC3c2ccc(F)cc2)ccc1-n1cnc(Cl)c1 (single isomer, unassigned) [Example 20B, N-(4-(4-chloro-1H-imidazol-1-yl)-3-methoxyphenyl)-7-(4-fluorophenyl)-4-(2-methylpyrrolidin-1-yl)-6,7-dihydro-5H-cyclopenta[d]pyrimidin-2-amine]",10 to 100 nM
8,"CCC1CCCN1c1nc(Nc2ccc(-n3cnc(Cl)c3)c(OC)c2)nc2c1CCC2c1ccc(F)cc1 (single isomer, unassigned) [Example 23, N-(4-(4-chloro-1H-imidazol-1-yl)-3-methoxyphenyl)-4-(2-ethylpyrrolidin-1-yl)-7-(4-fluorophenyl)-6,7-dihydro-5H-cyclopenta[d]pyrimidin-2-amine]",10 to 100 nM
9,"CCC1CCCN1c1nc(Nc2ccc(-n3cnc(Cl)c3)c(OC)c2)nc2c1CCC2c1ccc(F)cc1 (single isomer, unassigned) [Example 24, N-(4-(4-chloro-1H-imidazol-1-yl)-3-methoxyphenyl)-4-(2-ethylpyrrolidin-1-yl)-7-(4-fluorophenyl)-6,7-dihydro-5H-cyclopenta[d]pyrimidin-2-amine]",10 to 100 nM
10,"COc1cc(Nc2nc3c(c(N4CCC(O)(C(F)(F)F)C4)n2)CCC3c2ccc(F)cc2)ccc1-n1cnc(Cl)c1 (single isomer, unassigned) [Example 28, 1-(2-(4-(4-chloro-1H-imidazol-1-yl)-3-methoxyphenylamino)-7-(4-fluorophenyl)-6,7-dihydro-5H-cyclopenta[d]pyrimidin-4-yl)-3-(trifluoromethyl)pyrrolidin-3-ol]",10 to 100 nM

# Further lines, results first:
row,IC50,Structure (SMILES)
1,10 to 100 nM,"COc1cc(Nc2nc3c(c(N4C[C@@H](C)O[C@@H](C)C4)n2)CCC3c2ccc(F)cc2)ccc1-n1cnc(Cl)c1 (single isomer, unassigned) [Example 21A]"
2,100 to 1000 nM,"COc1cc(Nc2nc3c(c(N4C[C@@H](C)O[C@@H](C)C4)n2)CCC3c2ccc(F)cc2)ccc1-n1cnc(Cl)c1 (single isomer, unassigned) [Example 21B]"
3,10 to 100 nM,"CCC1CCCN1c1nc(Nc2ccc(-n3cnc(Cl)c3)c(OC)c2)nc2c1CCC2c1ccc(F)cc1 (single isomer, unassigned) [Example 23A, N-(4-(4-chloro-1H-imidazol-1-yl)-3-methoxyphenyl)-4-(2-ethylpyrrolidin-1-yl)-7-(4-fluorophenyl)-6,7-dihydro-5H-cyclopenta[d]pyrimidin-2-amine]"
4,100 to 1000 nM,"CCC1CCCN1c1nc(Nc2ccc(-n3cnc(Cl)c3)c(OC)c2)nc2c1CCC2c1ccc(F)cc1 (single isomer, unassigned) [Example 23B, N-(4-(4-chloro-1H-imidazol-1-yl)-3-methoxyphenyl)-4-(2-ethylpyrrolidin-1-yl)-7-(4-fluorophenyl)-6,7-dihydro-5H-cyclopenta[d]pyrimidin-2-amine]"
5,10 to 100 nM,"CCC1CCCN1c1nc(Nc2ccc(-n3cnc(Cl)c3)c(OC)c2)nc2c1CCC2c1ccc(F)cc1 (single isomer, unassigned) [Example 24A, N-(4-(4-chloro-1H-imidazol-1-yl)-3-methoxyphenyl)-4-(2-ethylpyrrolidin-1-yl)-7-(4-fluorophenyl)-6,7-dihydro-5H-cyclopenta[d]pyrimidin-2-amine]"
6,10 to 100 nM,"CNc1nc(Nc2ccc(-n3ncnc3C)c(F)c2)nc2c1CCC2c1ccc(F)cc1 (single isomer, unassigned) [Example 26B, N^2-(3-fluoro-4-(5-methyl-1H-1,2,4-triazol-1-yl)phenyl)-7-(4-fluorophenyl)-N^4-methyl-6,7-dihydro-5H-cyclopenta[d]pyrimidine-2,4-diamine]"
7,10 to 100 nM,"COc1cc(Nc2nc3c(c(N4CCC(O)(C(F)(F)F)C4)n2)CCC3c2ccc(F)cc2)ccc1-n1cnc(Cl)c1 (single isomer, unassigned) [Example 28A, 1-(2-(4-(4-chloro-1H-imidazol-1-yl)-3-methoxyphenylamino)-7-(4-fluorophenyl)-6,7-dihydro-5H-cyclopenta[d]pyrimidin-4-yl)-3-(trifluoromethyl)pyrrolidin-3-ol]"
